Where “and” joins values, the source holds several entries; their conditions need not be identical. Equal values may be shown once. Where a SMILES comes first, the peptide text is derived from it. [ ]: non-standard residue; d: D form. Hyp = O=C(O)[C@@H]1C[C@@H](O)CN1
Test system: IL-2
Assay: Example 9 Luminex, LPS hPBMCs: IL-2
Format: cell-based, human
Description: Treatment Human PBMCs were pretreated with YY-101, YDE-011 and YDE-043 or reference compound; Xiidra® at various concentration (ranging from 1 nM to 100 uM) for 2 h before stimulation. An equal volume of 0.5% DMSO was used as a vehicle control. Then, the cells were treated with LPS at 5 ug/ml. The supernatants from treated cells were harvested at 24 h and placed in a 96 well for Luminex cytokine & chemokine profiling using a Luminex 200 multiplex assay (Luminex; R&D system, USA).
The main study arm with triplicate wells per group in a 24-well plate: • 1. Blank • 2. PBMC: 0.5% DMSO • 3. PBMC+LPS (5 ug/ml) • 4. PBMC+YY-101 100 uM • 5. PBMC+YY-101 10 uM • 6. PBMC+YY-101 1 uM • 7. PBMC+YY-101 0.1 uM • 8. PBMC+YY-101 0.01 uM • 9. PBMC+LPS (5 ug/ml)+Xiidra®100 uM • 10. PBMC+LPS (5 ug/ml)+Xiidra® 10 uM • 11. PBMC+LPS (5 ug/ml)+Xiidra® 1 uM • 12. PBMC+LPS (5 ug/ml)+Xiidra®0.1 uM • 13. PBMC+LPS (5 ug/ml)+Xiidra®0.01 uM • 14. PBMC+LPS (5 ug/ml)+Xiidra®0.001 uM • 15. PBMC+LPS (5 ug/ml)+YY-101 100 uM • 16. PBMC+LPS (5 ug/ml)+YY-101 10 uM • 17. PBMC+LPS (5 ug/ml)+YY-101 1 uM • 18. PBMC+LPS (5 ug/ml)+YY-101 0.1 uM • 19. PBMC+LPS (5 ug/ml)+YY-101 0.01 uM • 20. PBMC+LPS (5 ug/ml)+YY-101 0.001 uM • 21. PBMC+LPS (5 ug/ml)+YDE-011 100 uM • 22. PBMC+LPS (5 ug/ml)+YDE-011 10 uM • 23. PBMC+LPS (5 ug/ml)+YDE-011 1 uM • 24. PBMC+LPS (5 ug/ml)+YDE-011 0.1 uM • 25. PBMC+LPS (5 ug/ml)+YDE-011 0.01 uM • 26. PBMC+LPS (5 ug/ml)+YDE-011 0.001 uM • 27. PBMC+LPS (5 ug/ml)+YDE-043 100 uM • 28. PBMC+LPS (5 ug/ml)+YDE-043 10 uM • 29. PBMC+LPS (5 ug/ml)+YDE-043 1 uM • 30. PBMC+LPS (5 ug/ml)+YDE-043 0.1 uM • 31. PBMC+LPS (5 ug/ml)+YDE-043 0.01 uM • 32. PBMC+LPS (5 ug/ml)+YDE-043 0.001 uM
Multiplex assay was used to measure 30 cytokines and chemokines. The 1:2, 1:10 and 1:200 diluted cell supernatant and serial dilution of the standard were dispensed into a 96 well plate at 50 ul/well. Then, the pre-mixed cocktail of antibody-coated magnetic beads was dispensed at 50 ul/well and incubated at room temperature for 2 h in a horizontal orbital microplate shaker at 800±500 rpm. The beads were washed using a magnetic device to prevent loss. The biotin-antibody was dispensed in 50 ul of each well and incubated at room temperature for 1 h in a shaker at 800±500 rpm. After washing, streptavidin-PE was added at 50 ul/well and incubated at room temperature for 30 min in a shaker under the same conditions. Finally, after washing, wash buffer (100 ul/well) was added to the plate and incubated in a shaker for 2 min. The Luminex™ 200 setting were set according to the manufacturer's protocol. The data was calculated with a standard five-parameter logistic nonlinear regression analysis of the data (xPonent software 4.2, USA). The levels of cytokine/chemokine are normalized to the live cell counts (1×10^5 cells/mL) and presented as concentrations per mL (pg/mL or ng/mL).

[1] = PBMC + LPS(5 ug/ml) + test article 0.001 uM, Mean
[2] = PBMC + LPS(5 ug/ml) + test article 0.001 uM, single replicates
[3] = PBMC + LPS(5 ug/ml) + test article 0.01 uM, Mean
[4] = PBMC + LPS(5 ug/ml) + test article 0.01 uM, single replicates
[5] = PBMC + LPS(5 ug/ml) + test article 0.1 uM, Mean
[6] = PBMC + LPS(5 ug/ml) + test article 0.1 uM, single replicates
[7] = PBMC + LPS(5 ug/ml) + test article 1 uM, Mean
[8] = PBMC + LPS(5 ug/ml) + test article 1 uM, single replicates
[9] = PBMC + LPS(5 ug/ml) + test article 10 uM, Mean
[10] = PBMC + LPS(5 ug/ml) + test article 10 uM, single replicates
[11] = PBMC + LPS(5 ug/ml) + test article 100 uM, Mean
[12] = PBMC + LPS(5 ug/ml) + test article 100 uM, single replicates

SMILES: CC(C)C[C@H](NC(=O)[C@H](CCC(N)=O)NC(=O)CNC(=O)[C@@H]1C[C@@H](O)CN1)C(=O)NCC(=O)O [YDE-043] (H-[Hyp]GQLG-OH; N-terminus and C-terminus assumed)
- IL-2 conc/live cell [1]: 0.0 pg/10^5
- MFI, Bead name: IL-2 [1]: 6.3
- IL-2 conc/live cell [2]: 0.0 pg/10^5
- MFI, Bead name: IL-2 [2]: 3.0 and 8.0 (2×)
- IL-2 conc/live cell [3]: 0.0 pg/10^5
- MFI, Bead name: IL-2 [3]: 4.7
- IL-2 conc/live cell [4]: 0.0 pg/10^5
- MFI, Bead name: IL-2 [4]: 6.0 and 4.0 (2×)
- IL-2 conc/live cell [5]: 0.0 pg/10^5
- MFI, Bead name: IL-2 [5]: 5.7
- IL-2 conc/live cell [6]: 0.0 pg/10^5
- MFI, Bead name: IL-2 [6]: 6.0 and 3.0 and 8.0
- IL-2 conc/live cell [7]: 0.0 pg/10^5
- MFI, Bead name: IL-2 [7]: 3.0
- IL-2 conc/live cell [8]: 0.0 pg/10^5
- MFI, Bead name: IL-2 [8]: 3.0 and 2.0 and 4.0
- IL-2 conc/live cell [9]: 0.0 pg/10^5
- MFI, Bead name: IL-2 [9]: 3.3
- IL-2 conc/live cell [10]: 0.0 pg/10^5
- MFI, Bead name: IL-2 [10]: 3.0 and 2.0 and 5.0
- IL-2 conc/live cell [11]: 0.0 pg/10^5
- MFI, Bead name: IL-2 [11]: 2.0
- IL-2 conc/live cell [12]: 0.0 pg/10^5
- MFI, Bead name: IL-2 [12]: 2.0

From patent publication US20230146455A1, “TREATMENT OF INFLAMMATORY DISEASES WITH PEPTIDES AND PHARMACEUTICAL COMPOSITIONS” (Yuyu Pharma, Inc., priority 2020, published 2023)
